Source: PubChem BioAssay AID1249 (Columbia University Molecular Screening Center, 2008)
Activity calls are given as the source filed them. How the calls were made is not given here.

Experiments:
[1] = modifiers of cytoskeleton assembly, confirmation, imaging, high-content imaging, retest and dose response (AID 1249); settings: cell-based imaging, cytoskeleton assembly phenotype, high content; for cell count: at 10 µM, stronger effect = lower value; for inhibition: at 2 µM, stronger effect = higher value;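 on all read-outs here: compound exposure lasted 24 h before fixation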;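 on inhibition: plate controls were untreated cells for no effect and reference compound treated cells for full effect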
[2] = test system: cell-based imaging, cytoskeleton assembly phenotype, high content; experiment: as above

Row | Structure (SMILES) | cell count [1] [%] | IC50 [2] | inhibition [1]
1 | CC1=CC(C)(C)N(S(=O)(=O)c2ccc(C)cc2)c2cc(C)ccc21 | 90.8 | > 10 µM (inactive) | 
2 | COc1ccc(NC(=O)/C(Cl)=C(/Cl)S(=O)Cc2ccc(C)cc2)cn1 (centres undefined) | 63.4 | > 10 µM (inactive) | 
3 | CCCC1=Nc2cc(C(=O)NCCCOCC)ccc2Sc2ccccc21 | 37.3 | 0.873 µM | 
4 | O=C(c1ccco1)N1CCN(C(=O)N2c3ccccc3Sc3ccccc32)CC1 | 42 | > 10 µM (inactive) | 
5 | Cc1cc(C)c2nc(SCC(=O)N3CC(=O)Nc4ccccc43)c(C#N)cc2c1 | 51.1 | > 10 µM (inactive) | 
6 | CCCOc1ccccc1C1CC(=O)Nc2cc3c(cc21)OCCO3 (centres undefined) | 125 | > 10 µM (inactive) | 
7 | COc1cc2c3nnc(-c4ccc(F)cc4)c-3cn(Cc3ccccc3)c2cc1OC | 86.3 | > 10 µM (inactive) | 
8 | COc1ccc(-c2cc(C(F)(F)F)n3nc(C(=O)Nc4cc(C)on4)cc3n2)cc1OC | 92.1 | > 10 µM (inactive) | 
9 | COC(=O)C[C@]1(C(=O)OC)CN(C#N)N(c2ccc(Cl)cc2)C12c1ccccc1-c1ccccc12 | 82 | > 10 µM (inactive) | 
10 | O=C1CC(c2cc(Br)ccc2F)c2cc3c(cc2N1)CCC3 (centres undefined) | 105 | > 10 µM (inactive) | 
11 | Cn1cc(/C=N/n2cnc3scc(-c4ccc(Cl)cc4)c3c2=O)c2ccccc21 | 60.8 | > 10 µM (inactive) | 
12 | CC(C)Oc1ccccc1C1CC(=O)Nc2cc3c(cc21)OCO3 (centres undefined) | 113 | > 10 µM (inactive) | 
13 | Cc1ccc(C(=O)OCn2ncc(Cl)c(Cl)c2=O)cc1 | 1.4 | 3.08 µM | 
14 | COc1cc(C2C3=C(Nc4ncnn42)c2ccccc2CC3)cc(OC)c1OC (centres undefined) | 43.2 | 5 µM | 
15 | COc1ccc(OC)c(C2C3=C(COC3=O)Nc3cc4c(cc32)OCO4)c1 (centres undefined) | 102 | > 10 µM (inactive) | 
16 | N#CC1=C(N)Oc2c(ccc3ccccc23)C1c1cccs1 (centres undefined) | 28.9 | > 10 µM (inactive) | 
17 | Cc1cc(C)c(S(=O)(=O)Nc2ccc3c4c(cccc24)CC3)c(C)c1 | 78.5 | > 10 µM (inactive) | 
18 | N#CC1=C2SCC(O)(c3ccccc3)N2C(=O)CC1c1cccs1 (centres undefined) | 26.4 | > 10 µM (inactive) | 
19 | CCN(CC)c1ccc2cc(-c3nc4ccccc4[nH]3)c(=O)oc2c1 | 96.6 | > 10 µM (inactive) | 
20 | O=C(N/N=C/C(Br)=C\c1ccccc1)c1n[nH]c2c1CCC2 | 33.3 | 0.582 µM | 
21 | COc1ccc(NC(=O)/C(Cl)=C(/Cl)S(=O)Cc2ccccc2)cn1 (centres undefined) | 48.1 | > 10 µM (inactive) | 
22 | CCOc1ccccc1C(=O)N1CCN(c2cccc(Cl)c2)CC1 | 36.6 | 1.25 µM | 
23 | O=C(N/N=C/C(Br)=C/c1ccccc1)c1n[nH]c2c1CCC2 | 30.8 | 5 µM | 
24 | CN(C)c1ccc(C(=O)c2ccc(N(C)C)c3ccccc23)cc1 | 28.2 | 0.599 µM | 
25 | COC(=O)C1CN(C#N)N(c2ccc(Cl)cc2)C12c1ccccc1-c1ccccc12 (centres undefined) | 85.3 | > 10 µM (inactive) | 
26 | Cc1ccc2[nH]c(-c3ccccc3)cc(=O)c2c1 | 41.3 | > 10 µM (inactive) | 

Row | Structure (SMILES) | cell count [1] [%] | IC50 [2] | inhibition [1]
27 | CC1=C([N+](=O)[O-])C(c2cccc(Br)c2)C2=C(N1)c1ccccc1C2=O (centres undefined) | 30.8 | 2.65 µM | 
28 | CCOC(=O)Nc1nc(-c2ccccc2)c(C(=O)c2ccccc2)s1 | 53.7 | > 10 µM (inactive) | 
29 | CC(/C=N/NC(=O)c1cc(-c2ccncc2)nc2ccccc12)=C\c1ccco1 | 35.1 | 4.55 µM | 
30 | COc1ccccc1-n1cnc2cc(NCc3cccs3)ccc21 | 31.6 | 3.24 µM | 
31 | CC1CCC/C=C/C2CC(O)CC2C(O)/C=C/C(=O)O1 (centres undefined) | 33.9 | > 10 µM (inactive) | 
32 | Cc1c(C(=O)OCC(C)C)[nH]c2c1C(=O)CC(c1ccco1)C2 (centres undefined) | 38.8 | > 10 µM (inactive) | 
33 | CCSc1nc2ccccc2n1C(=O)/C=C\c1ccc(OC)c(OC)c1 | 111 | > 10 µM (inactive) | 
34 | CCN(CC)c1ccc2c(c1)OC(N)=C(C#N)C2c1cccnc1 (centres undefined) | 33.7 | 0.625 µM | 
35 | COc1ccc(NS(=O)(=O)c2cc(C)ccc2NC(=O)c2cc(C)oc2C)cc1 | 52 | > 10 µM (inactive) | 
36 | Cc1ccc(NC2=C/C(=N\S(=O)(=O)c3cccs3)c3ccccc3C2=O)c(C)c1 | 79.8 | > 10 µM (inactive) | 
37 | COc1ccc(CCNc2nnc(Sc3nnnn3-c3ccccc3)s2)cc1OC | 32.1 | 1.87 µM | 
38 | CCCCN1C(=O)/C(=C/C=C2\N(C)c3ccccc3C2(C)C)SC1=S | 94.3 | > 10 µM (inactive) | 
39 | COc1ccc(-c2c/c(=N\c3nc(-c4ccccc4)c(C)s3)c3ccccc3o2)cc1O | 113 | > 10 µM (inactive) | 
40 | O=C(c1ccc(Br)cc1)c1cc([N+](=O)[O-])ccc1N1CCCCC1 | 81.7 | > 10 µM (inactive) | 
41 | COc1cc(-c2nnc3n2N=C(c2ccccc2)CS3)cc(OC)c1OC | 90.7 | > 10 µM (inactive) | 
42 | O=C(Nc1nc(-c2ccncc2)cs1)C1COc2ccccc2O1 (centres undefined) | 92.2 | > 10 µM (inactive) | 
43 | O=C1C(=O)c2ccc(-c3ccccc3)cc2-c2ccccc21 | 111 | > 10 µM (inactive) | 
44 | CCN(CC)c1ccc2cc(-c3nc4ccccc4n3C)c(=O)oc2c1 | 99.7 | > 10 µM (inactive) | 
45 | O=C(COc1ccccc1-c1ccccc1)N/N=C/c1cccc2ccccc12 | 85 | > 10 µM (inactive) | 
46 | COCCN1C(=O)c2oc3c(C)cc(C)cc3c(=O)c2C1c1cccc(O)c1 (centres undefined) | 86 | > 10 µM (inactive) | 
47 | O=Cc1cc2ccccc2nc1SCc1ccc(Cl)c(Cl)c1 | 94.3 | > 10 µM (inactive) | 
48 | CCCOC(=O)c1[nH]c2c(c1C)C(=O)CC(c1cccs1)C2 (centres undefined) | 40.1 | > 10 µM (inactive) | 
49 | Cc1ccc(-c2nc(NC(=O)c3nn(C)cc3[N+](=O)[O-])sc2C)cc1C | 88 | > 10 µM (inactive) | 
50 | CSc1nc(N(C)NC(=O)c2cccc(C)c2)c2ccccc2n1 | 31.6 | > 10 µM (inactive) | 
51 | CCCCCOc1ccc(Br)cc1/C(C)=N/NC1=NCCN1 | 19.4 | 5.97 µM | 
52 | O=C(O)C1CCCCC1C(=O)Nc1cc(Cl)ccc1Cl (centres undefined) | 94.2 | > 10 µM (inactive) | 

Row | Structure (SMILES) | cell count [1] [%] | IC50 [2] | inhibition [1]
53 | COc1ccc(C2=Nn3c(nnc3-c3ccc(OC)cc3)SC2)cc1 | 91.1 | > 10 µM (inactive) | 
54 | CC(=O)Nc1ccc(S(=O)(=O)NC2(C(F)(F)F)C(=O)Nc3c2c(=O)[nH]c(=O)n3C)cc1 (centres undefined) | 90.8 | > 10 µM (inactive) | 
55 | O=S(=O)(c1ccc2c(c1)C(=NO)c1cc(S(=O)(=O)N3CCCCC3)ccc1-2)N1CCCCC1 | 126 | > 10 µM (inactive) | 
56 | CC(/C=N/NC(=O)c1cc(-c2ccc(Cl)cc2)nc2ccccc12)=C\c1ccco1 | 115 | > 10 µM (inactive) | 
57 | CCOC(=O)c1[nH]c(C)c(C(=O)c2cc(F)ccc2F)c1C | 48.7 | > 10 µM (inactive) | 
58 | Cc1ccc(Nc2nc(-c3c(C)nc4ccccn34)cs2)cc1 | 31.8 | 1.37 µM | 
59 | CCOc1cc(CNc2ccc3c(c2)OCCO3)cc(Br)c1OC | 37.1 | > 10 µM (inactive) | 
60 | Cc1cc(=O)oc2cc(OCC3CC(c4ccccc4Cl)=NO3)ccc12 (centres undefined) | 92.5 | > 10 µM (inactive) | 
61 | CCOc1ccc(S(=O)(=O)Nc2cc(OC)ccc2OC)cc1 | 44.2 | > 10 µM (inactive) | 
62 | CCN(CC)c1ccc(-c2nn3c(-c4ccccc4OC)nnc3s2)cc1 | 25.6 | 1.7 µM | 
63 | Cc1ccc(NC(=O)Cn2nnc(-c3ccccc3NC(=O)c3cccs3)n2)cc1 | 109 | > 10 µM (inactive) | 
64 | CCC1=Nc2cc(C(=O)NCCCOC)ccc2Sc2ccccc21 | 29.1 | > 10 µM (inactive) | 
65 | CC(C)Oc1ccccc1C1CC(=O)Nc2cc3c(cc21)OCCO3 (centres undefined) | 88.5 | > 10 µM (inactive) | 
66 | COc1cc(N2CCCC2)c(OC)cc1/C=c1/sc2nc3ccccc3n2c1=O | 87.5 | > 10 µM (inactive) | 
67 | O=C(CS(=O)c1ccc(C(F)(F)F)cc1[N+](=O)[O-])Oc1ccccc1 (centres undefined) | 94.1 | > 10 µM (inactive) | 
68 | COc1cc(C2C(C#N)=C(C)NC3=C2C(=O)c2ccccc23)cc(OC)c1OC (centres undefined) | 34 | 1.55 µM | 
69 | CCn1c2ccccc2c2cc(NC(=O)c3cc(OC)c(OC)c(OC)c3)ccc21 | 32.4 | 1.73 µM | 
70 | CCOC(=O)c1[nH]c(C)c(C(=O)N2CCc3ccccc32)c1C | 31.8 | 5 µM | 
71 | C=CCSc1nc2ccccc2n1C(=O)/C=C/c1cc(OC)c(OC)c(OC)c1 | 102 | > 10 µM (inactive) | 
72 | N=c1oc2c3c4c(cc2cc1C(=O)Nc1ccccc1)CCCN4CCC3 | 99.4 | 8.21 µM | 
73 | Clc1ccc(C2=Nn3c(nnc3-c3cccnc3)SC2)s1 |  |  | 0% (inactive)
74 | O=C(NC1CCCCC1)N(CCN1CCOCC1)Cc1cc2cc3c(cc2[nH]c1=O)OCCO3 |  |  | 32.9% (inactive)
75 | C=CCN1C(=O)/C(=C2/Sc3ccccc3N2CCCS(=O)(=O)O)SC1=S |  |  | 0.3% (inactive)
76 | Cc1ccccc1CS(=O)(=O)c1nnc([C@H](Cc2ccccc2)NC(=O)OC(C)(C)C)o1 |  |  | 0.1% (inactive)
77 | CCNc1nc(NCC)n2c(SCc3ccc(F)cc3)nnc2n1 |  |  | 4.8% (inactive)
